Measurements reported in PubChem BioAssay AID651569 (Sanford-Burnham Center for Chemical Genomics, 2012).
Active and inactive are the calls of the source. No rule for the calls is given here.

Tested on: luminescent cytotoxicity (cell viability) counter-screen
Assay: cytotoxicity of Gli-SUFU antagonist hits, dose response, cytotoxicity control for Gli-SUFU antagonist project, cell-based, luminescence, uHTS hits (AID 651569);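 also: compound exposure lasted overnight before the viability readout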

SMILES	IC50
CC(=O)Nc1cccc(OCC(=O)/C=C2\N(C)c3ccccc3C2(C)C)c1	> 20 µM (inactive)
CCCOc1ccc(Br)cc1CSC(=N)N	8.78 µM
Cc1ccc(C)c(-c2csc(NC(=O)C3=COCCO3)n2)c1	> 20 µM (inactive)
CCN(CC)S(=O)(=O)c1ccc(C)c(NC(=S)N2CCN(Cc3ccc4c(c3)OCO4)CC2)c1	> 20 µM (inactive)
O=C(C1CCCCC1)N1CCN(c2ccnc3cc(Cl)ccc23)CC1	> 20 µM (inactive)
O=C(Nc1cc2c3c(c1)C1CCCC1CN3CC1CCCC21)c1ccc([N+](=O)[O-])cc1 (configuration not stated)	> 20 µM (inactive)
Cc1sc2ncnc(NCC(O)c3ccc([N+](=O)[O-])cc3)c2c1C (configuration not stated)	> 20 µM (inactive)
COC(=O)C1=C(c2cc3ccccc3o2)C[C@@H]2CC[C@H]1N2C(=O)N1CCC(C)CC1	> 20 µM (inactive)
CCCCN(C(C)=O)c1ccc2c(c1)C1CC2CCN1C(=O)OCc1ccccc1 (configuration not stated)	8.16 µM
CCOC(=O)c1c(NC(=O)C(=O)N/N=C/c2ccccc2O)sc2c1CCCCC2	19 µM
O=C(c1cc2nc(-c3ccc(F)cc3)cc(C(F)(F)F)n2n1)N1CCCCC1c1cccnc1 (configuration not stated)	> 20 µM (inactive)
N=c1c(-c2nc3ccccc3[nH]2)cc(C(=O)c2ccco2)nn1-c1ccccc1	> 20 µM (inactive)
O=C(NC(c1cccnc1)C(F)(F)F)c1cc(COc2ccc3c(c2)CCCC3)on1 (configuration not stated)	> 20 µM (inactive)
CCC(C(=O)NCCC(C)C)n1ccc2cc(S(=O)(=O)N3CCCCC3)ccc21 (configuration not stated)	> 20 µM (inactive)
Cc1cc(C)c(C(N)=O)c(SCC(=O)c2cc(C)n(-c3cc(C)on3)c2C)n1	> 20 µM (inactive)
Cc1cc(C)c(C)c(S(=O)(=O)N2CCN(c3ncnc4ccccc34)CC2)c1C	> 20 µM (inactive)
O=C(c1cccc(S(=O)(=O)N2CCN(c3ccccc3)CC2)c1)N1CCCC(C(F)(F)F)C1 (configuration not stated)	> 20 µM (inactive)
O=C(Nc1ccc(C(F)(F)F)cc1)C1CCN(S(=O)(=O)c2ccc(N3CCCC3=O)cc2)CC1	> 20 µM (inactive)
O=C(N[C@@H]1C/C=C\C[C@@H](CC(=O)N(CCO)Cc2ccccc2)C(=O)NCCOC1=O)OCC1c2ccccc2-c2ccccc21	> 20 µM (inactive)

SMILES	IC50
CCCn1c2c(c(=N)c3c1CCC3)CCCC2	> 20 µM (inactive)
CC(=O)c1cccc(NS(=O)(=O)c2ccc(-c3cnc(C4CC4)o3)cc2)c1	6.78 µM
N=c1c2c(n(Cc3ccc(F)cc3)c3c1CCC3)CCCC2	> 20 µM (inactive)
CCOc1ccc(OCc2ccc(C(=O)NN=Cc3ccc[nH]3)cc2)cc1	19.3 µM
Cc1nc2ccccc2c2oc(C(=O)N3CCN(C4CCCCC4)CC3)cc12	> 20 µM (inactive)
CCOC(=O)c1ccc(NC(=O)Cn2cnc3cc(C)c(C)cc32)cc1	> 20 µM (inactive)
CCCCCCCOc1ccc(OC(=O)c2cccnc2)cc1	> 20 µM (inactive)
CC1Sc2n(c3ccccc3[n+]2C)N=C1c1ccccc1 (configuration not stated)	> 20 µM (inactive)
C(#Cc1ccccc1)C[N+]1(CC#Cc2ccccc2)CCCC1	> 20 µM (inactive)
CCOc1ccc(-n2c(O)c(/C=N/Nc3nc(C)cc(C)n3)c3ccccc3c2=O)cc1	> 20 µM (inactive)
CCCCCCCOc1ccc(OC(=O)c2ccncc2)cc1	> 20 µM (inactive)
CC(=O)c1c(C)[nH]c(C(=O)OCC(=O)Nc2cccc(S(=O)(=O)N3CCCC3)c2)c1C	> 20 µM (inactive)
Brc1ccc(-c2csc(N3CCCCCC3)n2)cc1	> 20 µM (inactive)
Cc1c(C(C)C)c(=O)n(-c2ccc(S(=O)(=O)NC3CCCCC3)cc2)n1C	9.32 µM
CCOP(=O)(CCP(=O)(OCC)OCC)OCC.C[CH2][Sn]([Cl])([Cl])[CH2]C	12.6 µM
CC(C)CC(NC(=O)CCCNC(=O)CCC(=O)OC1O[C@H]2OC3(C)CC[C@H]4[C@H](C)CCC(C1C)C24OO3)C(=O)O (some centres not stated)	> 20 µM (inactive)
COCCNc1nc2c(c(=O)n(C)c(=O)n2C)n1Cc1cccc(C(F)(F)F)c1	12.4 µM
CN(Cc1ccc(OCC(O)CN2CCCCC2)cc1)Cc1ccnc2ccccc12 (configuration not stated)	> 20 µM (inactive)
